The molecules below were run against Tyrosine-protein kinase BTK (Homo sapiens, UniProt Q06187) (assay: HTRF Assay: An HTRF assay (Cisbio KinEASE-TK cat #62TKOPEC) was performed to quantitate the ability of test compounds to inhibit BTK mediated phosphorylation of substrate. Assays were assembled in 384 well plates where 6 nM of full-length human His-tagged BTK (Life Technologies cat #PV3587) and test compound at varying concentrations were preincubated for 15 minutes at 28° C. Then, 1 uM of TK substrate-biotin and 30 uM ATP were added and incubated for an additional 30 minutes at 28° C. Phospohrylation was detected by adding 62.5 nM Streptavidin-XL665 and TK-Antibody Cryptate diluted 1:100 in HTRF detection buffer (Cisbio cat #62SDBRDF) and incubated for 60 minutes at RT. The plate was read on an Envision plate reader and the fluoresence is measured at 620 nm (cryptate) and 665 nm (XL665). A ratio is calculated (665/620) and converted to POC relative to control and blank wells.Assay Buffer:50 mM HEPES (Invitrogen #15630), 0.01% Brij-35 (sigma #B4184), 10 mM MgC12 (Sigma M1028), 1 mM EGTA.).
Sequence of Tyrosine-protein kinase BTK (Q06187 whole entry): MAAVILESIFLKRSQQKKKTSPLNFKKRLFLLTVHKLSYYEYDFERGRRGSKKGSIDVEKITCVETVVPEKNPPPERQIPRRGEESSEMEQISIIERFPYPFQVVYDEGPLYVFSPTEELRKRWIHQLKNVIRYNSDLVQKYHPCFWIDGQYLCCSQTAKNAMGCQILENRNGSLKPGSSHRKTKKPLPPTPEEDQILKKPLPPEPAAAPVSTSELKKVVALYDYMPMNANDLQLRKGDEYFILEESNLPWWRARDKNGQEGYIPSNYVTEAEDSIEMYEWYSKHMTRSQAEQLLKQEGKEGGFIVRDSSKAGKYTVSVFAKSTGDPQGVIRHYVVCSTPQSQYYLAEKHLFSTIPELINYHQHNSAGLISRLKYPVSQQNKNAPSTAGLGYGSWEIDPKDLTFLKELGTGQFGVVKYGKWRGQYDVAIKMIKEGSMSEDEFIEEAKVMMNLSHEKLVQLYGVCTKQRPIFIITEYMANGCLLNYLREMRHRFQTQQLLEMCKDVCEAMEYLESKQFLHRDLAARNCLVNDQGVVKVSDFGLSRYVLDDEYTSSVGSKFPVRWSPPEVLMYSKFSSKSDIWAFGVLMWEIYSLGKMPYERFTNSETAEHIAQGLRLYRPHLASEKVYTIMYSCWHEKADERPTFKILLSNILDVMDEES

| Compound | IC50 [nM] |
| --- | --- |
| C/C=C/C(=O)N1CC2(CC(n3nc(-c4ccc(Oc5ccccc5)cn4)c4c(N)ncnc43)C2)C1 | 65 |
| CC#CC(=O)N1CC[C@]2(C1)C[C@H](n1nc(-c3ccc(Oc4ccccc4)cn3)c3c(N)ncnc31)C2 | 4 |
| CC#CC(=O)N1CC2(CC(n3nc(-c4ccc(Oc5ccccc5)cn4)c4c(N)ncnc43)C2)C1 | 1 |
| C=CC(=O)N1CC2(CC(n3nc(-c4ccc(Oc5ccccc5)cn4)c4c(N)ncnc43)C2)C1 | 1.6 |

Source: ChEMBL document CHEMBL3638507, “Heteroaromatic compounds as BTK inhibitors” (2015)
